# Source: US12534469B2 (CHILDREN'S HOSPITAL MEDICAL CENTER, priority 2020, dated 2026)
# Read-outs that look alike come from different tables or passages of the source.
# Columns and labels:
# [1] = biological target: T1, FLT3 ITD (Homo sapiens, UniProt P36888, ITD); experiment: DiscoverX KINOMEscan competition binding assay, FLT3 ITD
# T1 sequence (P36888 564-993): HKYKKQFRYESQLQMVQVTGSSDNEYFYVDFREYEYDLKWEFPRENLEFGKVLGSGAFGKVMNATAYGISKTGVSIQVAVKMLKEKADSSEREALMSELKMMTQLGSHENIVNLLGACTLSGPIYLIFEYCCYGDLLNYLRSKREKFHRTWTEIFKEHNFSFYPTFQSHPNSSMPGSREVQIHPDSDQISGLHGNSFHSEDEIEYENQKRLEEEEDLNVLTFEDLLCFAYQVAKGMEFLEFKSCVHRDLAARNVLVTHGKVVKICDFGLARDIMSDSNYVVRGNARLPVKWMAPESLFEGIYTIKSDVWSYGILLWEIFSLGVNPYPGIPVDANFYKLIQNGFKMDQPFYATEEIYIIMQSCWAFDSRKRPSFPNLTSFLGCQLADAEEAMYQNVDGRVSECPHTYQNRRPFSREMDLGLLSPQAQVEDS
# From the text: (§1) Kinase binding data were obtained for various exemplary compounds prepared according to Examples 1-25 using the DiscoverX KINOMEscan® active site-directed competition binding site-directed assay protocol described below. […] As a result, the data report thermodynamic interaction affinities (Kd values), rather than IC50 values that are dependent on ATP concentrations. The assay uses a DNA-tagged version of the protein kinase, and an immobilized ligand bound to a solid support. Compounds that directly or indirectly prevent kinase binding to the immobilized ligand reduce the amount of kinase captured on the solid support, which is detected using an ultra-sensitive qPCR method. Affinity constants reported from the assay have been reported to be independent of the immobilized ligand used that is coupled to the solid support (See supplemental information in Fabian, M. A. et. al., (2005) Nat. Biotechnol. 23, 329-336; Wodicka, L. M. et. al., (2010) Chem. Biol. 17, 1241-1249.)
# (§2) Kinase-tagged T7 phage strains were prepared in an E. coli host derived from the BL21 strain. E. coli were grown to log-phase and infected with T7 phage and incubated with shaking at 32° C. until lysis. The lysates were centrifuged and filtered to remove cell debris. The remaining kinases were produced in HEK-293 cells and subsequently tagged with DNA for qPCR detection. […] The liganded beads were blocked with excess biotin and washed with blocking buffer (SeaBlock (Pierce), 1% BSA, 0.05% Tween 20, 1 mM DTT) to remove unbound ligand and to reduce non-specific binding. […] Test compounds were prepared as 111× stocks in 100% DMSO. Kds were determined using an 11-point 3-fold compound dilution series with three DMSO control points. […] The compounds were then diluted directly into the assays such that the final concentration of DMSO was 0.9%. All reactions were performed in polypropylene 384-well plates. Each was a final volume of 0.02 mL. […] The kinase concentration in the eluates was measured by qPCR.
# (§3) Binding constants (Kds) were calculated with a standard dose-response curve using the Hill equation. […]
# [2] = biological target: T2, FLT3 D835H (Homo sapiens, UniProt P36888, D835H); experiment: DiscoverX KINOMEscan competition binding assay, FLT3 D835H
# T2 construct: purchased DiscoverX (KINOMEscan); host or cells: E. coli (T7 phage) or HEK-293
# T2 sequence (P36888 27-993 D835H): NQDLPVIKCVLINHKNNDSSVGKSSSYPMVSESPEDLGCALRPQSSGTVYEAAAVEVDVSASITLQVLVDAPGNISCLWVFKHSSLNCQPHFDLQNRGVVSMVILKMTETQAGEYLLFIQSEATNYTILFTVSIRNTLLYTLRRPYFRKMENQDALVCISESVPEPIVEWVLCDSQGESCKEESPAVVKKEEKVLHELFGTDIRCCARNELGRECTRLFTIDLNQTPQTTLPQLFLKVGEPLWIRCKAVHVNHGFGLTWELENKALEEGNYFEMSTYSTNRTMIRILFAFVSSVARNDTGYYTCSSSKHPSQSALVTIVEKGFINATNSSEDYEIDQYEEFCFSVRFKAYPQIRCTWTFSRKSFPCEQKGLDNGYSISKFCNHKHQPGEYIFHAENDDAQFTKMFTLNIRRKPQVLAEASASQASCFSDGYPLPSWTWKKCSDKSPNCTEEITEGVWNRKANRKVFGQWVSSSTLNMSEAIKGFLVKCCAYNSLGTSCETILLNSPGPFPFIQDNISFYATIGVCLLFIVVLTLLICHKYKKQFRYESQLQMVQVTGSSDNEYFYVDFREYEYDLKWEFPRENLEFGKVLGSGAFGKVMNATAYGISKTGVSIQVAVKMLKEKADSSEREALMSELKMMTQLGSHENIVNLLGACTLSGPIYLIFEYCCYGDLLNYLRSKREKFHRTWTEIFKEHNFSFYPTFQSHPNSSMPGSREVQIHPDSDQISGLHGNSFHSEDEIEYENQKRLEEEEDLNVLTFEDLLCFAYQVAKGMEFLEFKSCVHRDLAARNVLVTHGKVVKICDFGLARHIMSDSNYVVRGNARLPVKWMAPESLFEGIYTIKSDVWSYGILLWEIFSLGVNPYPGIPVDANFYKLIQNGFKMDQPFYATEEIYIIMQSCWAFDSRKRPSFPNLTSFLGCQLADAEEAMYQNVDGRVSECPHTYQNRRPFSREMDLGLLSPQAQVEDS
# From the text: as §1, §2, §3
Kd [1],Kd [2],Kd ([1]; read-out: FLT3 ITD Kd),SMILES
1 nM,0.23 nM,–,"COc1cc2ncc(-c3cccc(N[C@H]4CNC[C@@H]4F)n3)n2nc1C1CC1 [Compound 96, 6-(6-cyclopropyl-7-methoxyimidazo[1,2-b]pyridazin-3-yl)-N-((3S,4S)-4-fluoropyrrolidin-3-yl)pyridin-2-amine]"
–,0.18 nM,0.19 nM,"COc1cc2ncc(-c3cccc(N[C@@H]4CCNC4)n3)n2nc1C1CC1 [Compound 97, (R)-6-(6-cyclopropyl-7-methoxyimidazo[1,2-b]pyridazin-3-yl)-N-(pyrrolidin-3-yl)pyridin-2-amine]"
–,0.21 nM,0.54 nM,"COc1cc2ncc(-c3cccc(N[C@H]4CNCC[C@@H]4F)n3)n2nc1C1CC1 [Compound 102, 6-(6-cyclopropyl-7-methoxyimidazo[1,2-b]pyridazin-3-yl)-N-((3S,4S)-4-fluoropiperidin-3-yl)pyridin-2-amine]"
